Measured values from patent US20220064291A1, “METHODS OF USING BUTYROPHILIN ANTIBODIES FOR TREATING HIV INFECTION” (Merck Sharp & Dohme Corp., priority 2018, published 2022).

What was measured:
[1] = test system: human CD4+ T cells; assay: Inhibition of anti-CD3 (TCR)-mediated T cell activation by recombinant butyrophilin-Fc proteins, bead- and plate-based assays; conditions: anti-CD3 stimulation, FIG. 3
Method: To characterize the role of butyrophilins in regulating T cell responses, T cell assays were performed using recombinant human butyrophilin-Fc proteins. Specifically, we assessed the role of butyrophilins in inhibiting T cell receptor (TCR)-mediated T cell activation by anti-CD3 antibody (clone OKT3). Experiments were performed in bead- and plate-based formats.
Briefly, PBMCs were isolated from healthy human donors (Biological Specialty Corporation, Colmar, Pa.). To generate T cell blasts, PBMCs were treated with IL-2 (4u/ml) and PHA (1 μg/ml) in RPMI media containing 10% Fetal bovine serum (Gibco, Gaithersburg, Md.), penicillin (100U/ml)/streptomycin (0.1 mg/ml) (Gibco, Gaithersburg, Md.), and L-Glutamine (2 mM) (Gibco, Gaithersburg, Md.) at 37° C. in a CO2 incubator for 7 days. Fresh media was added once every 3 days. […]
4. […] T cell activation was measured based on IFNγ expression using a V-PLEX proinflammatory panel 1 human assay (Meso Scale Discovery, Rockville, Md.) (FIG. 3A-C).
Sterile 96-well flat bottom tissue culture plates (Corning) were coated with 1 μg/ml of anti-CD3 antibody (Clone OKT3, BD Pharmingen) in PBS+/− the following Fc-fusion proteins: BTN2A2-Fc, BTN3A1-Fc, or human IgG Fc. […] T cell activation was measured based on IFNγ expression using a V-PLEX proinflammatory panel 1 human assay (Meso Scale Discovery, Rockville, Md.) (FIG. 3D).

[2] = test system: HIV latent primary CD4+ T cells; assay: Competition with recombinant BTN-Fc proteins against anti-BTN3A 20.1-mediated virus reactivation; format: cell-based, human; conditions: recombinant Fc proteins 0.03-10 μg/ml; 24 h; FIG. 6
Method: To confirm the specificity of anti-BTN3A antibody-mediated activity on latent virus activity and T cell activation, we performed competition experiments using recombinant BTN proteins. Briefly, 96-well flat bottom tissue culture plates (Corning) were coated with anti-CD3 (1 μg/ml) and anti-BTN3A 20.1 antibody (5 μg/ml) in PBS for 16 h in a 4° C. refrigerator. The next day, antibodies were aspirated using a multichannel pipette and various concentrations of recombinant BTN-Fc proteins BTN3A1-Fc and BTN3A2-Fc (10 μg/ml, 3 μg/ml, 1 μg/ml, 0.3 μg/ml, 0.1 μg/ml, and 0.03 μg/ml) were added to antibody coated plates in 2% FBS (in PBS). BTN2A2-Fc and human IgG Fc were used as controls. After 30 min incubation at RT recombinant Fc proteins were aspirated using a multichannel pipette. Next, HIV latent primary CD4+ T cells from two donors were added to the antibody coated plates in duplicates at 125,000 cells/well in 200 ul of primary cell media (RPMI with 10% FBS, 50 μg/ml Primocin™). At 24h post treatment virus reactivation was measured using a Nano-Glo® Luciferase Assay (Promega) (FIG. 6).

BTN3A1-Fc: recombinant human butyrophilin-Fc fusion protein, R&D systems
activation of human CD4+ T cells (IFNγ production, T cell proliferation, IL-2 production) [1]: block activation
inhibition of anti-BTN3 20.1 Ab-mediated latent HIV activation and T cell activation [2]: dose-dependent inhibition
